Data taken from PMC3319116 (Journal of Medicinal Chemistry, 2012).

Tested on: MDCK-mdr1 cells
Assay: MDCK-mdr1 permeability assay
Conditions: apical to basal, 3.16 μM, 1 hr, 37°C, pH 7.4; % transported

Row | MDCK-mdr1 permeability A to B [%] | Compound
1 | <1 | Cc1c(C(=O)NCC2CCC(CNS(N)(=O)=O)CC2)nn(-c2ccc(Cl)cc2Cl)c1-c1ccc(Cl)cc1 (centres unmarked) [Compound 8]
2 | <1 | Cc1c(C(=O)NCC2CCC(CNS(C)(=O)=O)CC2)nn(-c2ccc(Cl)cc2Cl)c1-c1ccc(Cl)cc1 (centres unmarked) [Compound 7]
